Measurements: PMC10400579, “FDW028, a novel FUT8 inhibitor, impels lysosomal proteolysis of B7-H3 via chaperone-mediated autophagy pathway and exhibits potent efficacy against metastatic colorectal cancer” (Cell Death & Disease, 2023)

Tests used:
[1] = target: T1, Fucosyltransferase 8 (FUT8) (Homo sapiens, UniProt Q9BYC5); assay: grating-coupled interferometry (GCI) with immobilized FUT8; supported by thermal shift of FUT8-Flag from SW480 cells (Tm +[…] °C at […]); type: binding
T1 sequence (Q9BYC5 31-575): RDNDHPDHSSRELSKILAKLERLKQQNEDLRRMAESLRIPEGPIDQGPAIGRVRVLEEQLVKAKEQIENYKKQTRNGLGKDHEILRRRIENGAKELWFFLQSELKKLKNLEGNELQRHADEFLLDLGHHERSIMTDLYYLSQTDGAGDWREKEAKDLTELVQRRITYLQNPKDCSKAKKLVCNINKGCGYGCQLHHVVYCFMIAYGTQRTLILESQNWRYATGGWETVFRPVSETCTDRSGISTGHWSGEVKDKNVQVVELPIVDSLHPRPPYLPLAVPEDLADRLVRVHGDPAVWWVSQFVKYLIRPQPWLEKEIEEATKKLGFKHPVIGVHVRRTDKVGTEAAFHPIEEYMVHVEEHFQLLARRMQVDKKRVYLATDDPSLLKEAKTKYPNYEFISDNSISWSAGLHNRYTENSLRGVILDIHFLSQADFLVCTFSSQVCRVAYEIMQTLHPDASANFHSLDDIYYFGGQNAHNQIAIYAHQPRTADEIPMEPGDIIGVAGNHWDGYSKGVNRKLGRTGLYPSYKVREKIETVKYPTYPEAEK

[2] = target: T2, Fucosyltransferase 8 (FUT8) (Homo sapiens, UniProt Q9BYC5); assay: streptavidin pulldown from SW480 lysate with […] probe, western blot and LC-MS/MS; type: cell-based
T2 construct: FUT8-Flag
T2 sequence (Q9BYC5 1-575): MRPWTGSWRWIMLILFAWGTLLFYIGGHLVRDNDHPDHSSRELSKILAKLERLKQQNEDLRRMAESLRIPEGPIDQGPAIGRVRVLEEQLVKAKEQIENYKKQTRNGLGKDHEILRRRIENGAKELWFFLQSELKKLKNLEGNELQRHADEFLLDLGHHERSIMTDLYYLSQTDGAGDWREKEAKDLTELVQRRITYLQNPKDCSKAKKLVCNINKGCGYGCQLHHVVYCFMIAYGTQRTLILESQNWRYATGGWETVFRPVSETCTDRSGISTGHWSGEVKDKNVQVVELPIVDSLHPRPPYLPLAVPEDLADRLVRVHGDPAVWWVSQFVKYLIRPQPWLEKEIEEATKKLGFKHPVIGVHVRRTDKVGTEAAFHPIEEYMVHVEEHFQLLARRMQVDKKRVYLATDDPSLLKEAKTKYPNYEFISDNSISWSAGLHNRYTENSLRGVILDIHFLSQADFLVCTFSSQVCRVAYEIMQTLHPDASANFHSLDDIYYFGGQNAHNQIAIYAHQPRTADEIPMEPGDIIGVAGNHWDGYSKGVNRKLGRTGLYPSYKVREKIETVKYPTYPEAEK

CCc1ccc(CNc2nc3nc(CNCc4ccccc4)cc(O)n3n2)cc1 [D2-1c, FDW028]
Kd [1]: 5.49 µM

CCc1ccc(CNc2nc3nc(CN(Cc4ccccc4)C(=O)CCOCCOCCOCCOCCOCCOCCNC(=O)CCCC[C@@H]4SC[C@@H]5NC(=O)N[C@@H]54)cc(O)n3n2)cc1 [FDW028-PEG6-biotin]
streptavidin pulldown from SW480 lysate with 0.2 mM probe, western blot and LC-M [2]: much more FUT8-Flag was pulled down by FDW028-PEG6-biotin than the control
